Measurements reported in patent US11925672B2, “Peptide having antioxidant activity and composition containing same” (SEMPIO FOODS COMPANY, priority 2018, dated 2024).
“Also recorded” adds a separate entry of the source. Numbered stars: 1 amine (or outer) side, 2 acyl side, 3 side chain; on linkers, the order of the positions; unused ones are H or OH. Square brackets hold non-standard residues; d marks the D form. Ends that are not written are not given here. γGlu = O=C(O)[C@H](CCC(=O)[*:2])N[*:1]; Abu = CC[C@H](N)C(=O)O

Tests used:
[1] = system: Nrf2 mRNA; assay: Nrf2 mRNA expression level by real-time PCR in Tert-BHP-treated HEK293 cells; assay type: cell-based; conditions: Tert-BHP 300 μM, peptide 500 μM, 18 hours; for effect on expression of Nrf2 mRNA: FIGS. 5A to 5C; for Nrf2 mRNA expression compared to positive control GSH: vs GSH
Method: In the present invention, the antioxidant activity was compared between the 100 types of peptides, and the change in Nrf2 mRNA expression was measured through PCR in order to select the final peptide.
An HEK293 cell (kidney cell) line was seeded at a density of 6.6×10^5/well in DMEM (Dulbecco's Modified Eagle's Medium) medium on a 6-well plate and cultured at 37° C. under 5% CO2 for 24 hours. The next day, the medium was exchanged with serum and amino-acid-free media, and then the cells were further cultured for 20 hours or longer. The cells were treated with Tert-BHP (300 μM) and 500 μM 100 types of peptides, and then cultured for 18 hours.
RNA was extracted from the cells treated with 100 types of peptides in (1) using TRIzol (Thermo Fisher Scientific). A GoScript™ Reverse Transcription System (Promega, Wisconsin, USA) was used to synthesize cDNA from the RNA. The cDNA was synthesized by performing annealing using 1 μg of RNA, 0.5 μg of an oligo dt primer, 0.5 μg of a random primer and RT-PCR pre-mixture at 25° C. for 5 minutes, extension at 42° C. for 60 minutes, and inactivation at 70° C. for 15 minutes.
(§1) PCR was performed using Maxime™ PCR PreMix (i-StarTaq) (Intron Biotechnology, Korea). Real-time PCR was performed using SsoAdvanced™ Universal SYBR® Green Supermix (Bio-Rad, USA). 100 ng of cDNA, 2 μM (pmol/μl) primers, 10 μl of 2X SsoAdvanced™ Universal SYBR® Green Supermix and DW were added to the PCR plate well. Then, the temperature was cyclically adjusted to 95° C. for 3 minutes, 95° C. for 10 seconds and 58° C. for 40 seconds for a total of 40 cycles. A PCR reaction was performed using a CFX96 Touch™ Real-Time PCR Detection System (Bio-Rad, California, USA), and fluorescence intensity was measured at the end of each cycle.

[2] = system: SOD2 mRNA; assay: SOD2 mRNA expression level by real-time PCR in Tert-BHP-treated HEK293 cells; assay type: cell-based; conditions: Tert-BHP 300 μM, peptide 500 μM, 18 hours; for effect on SOD2 mRNA expression: FIG. 6; for SOD2 mRNA expression compared to positive control GSH: vs GSH
Method: The expression of SOD2 mRNA as another antioxidant factor was determined. The cell line culture, RNA extraction, cDNA synthesis and PCR experiments were performed in the same manner as in Experimental Example 5 above. A detailed description thereof is given below.
An HEK293 cell (kidney cell) line was seeded at a density of 6.6×10^5/well in DMEM (Dulbecco's Modified Eagle's Medium) medium on a 6-well plate and cultured at 37° C. and 5% CO2 for 24 hours. The next day, the medium was exchanged with serum and amino-acid-free media, and then the cells were further cultured for 20 hours or longer. The cells were treated with Tert-BHP (300 μM) and 500 μM 100 types of peptides, and then cultured for 18 hours.
RNA was extracted from the cells treated with 100 types of peptides in (1) using TRIzol (Thermo Fisher Scientific). A GoScript™ Reverse Transcription System (Promega, Wisconsin, USA) was used to synthesize cDNA from the RNA. The cDNA was synthesized by performing annealing with 1 μg RNA, 0.5 μg of an oligo dt primer, 0.5 μg of a random primer, and RT-PCR pre-mixture at 25° C. for 5 minutes, extension at 42° C. for 60 minutes, and inactivation at 70° C. for 15 minutes.
as §1, with “using the” for “using a”

Substance	effect on expression of Nrf2 mRNA [1]	Nrf2 mRNA expression compared to positive control GSH [1]	effect on SOD2 mRNA expression [2]	SOD2 mRNA expression compared to positive control GSH [2]
γ-GLU-VAL-GLU ([γGlu]-Val-Glu; also: gamma-glutamyl isopeptide bond (Glu side chain to Val))	improve the expression of Nrf2 mRNA	remarkably excellent effect; also recorded: statistically significant activity	increased SOD2 mRNA expression	remarkably excellent; also recorded: statistically significant activity
γ-GLU-VAL-ASP ([γGlu]-Val-Asp; also: gamma-glutamyl isopeptide bond (Glu side chain to Val))	improve the expression of Nrf2 mRNA	remarkably excellent effect; also recorded: statistically significant activity	increased SOD2 mRNA expression	remarkably excellent; also recorded: statistically significant activity
γ-GLU-ALA-GLY (Glu-Ala-Gly; not fully specified (residue 1); printed as γ-GLU-ALA-GLY)	improve the expression of Nrf2 mRNA			
γ-GLU-ORN	improve the expression of Nrf2 mRNA	comparable or superior		
γ-GLU-LEU-GLY ([γGlu]-Leu-Gly)	improve the expression of Nrf2 mRNA			
γ-GLU-VAL-MET ([γGlu]-Val-Met; also: gamma-glutamyl isopeptide bond (Glu side chain to Val))	improve the expression of Nrf2 mRNA	remarkably excellent effect; also recorded: statistically significant activity	increased SOD2 mRNA expression	remarkably excellent; also recorded: statistically significant activity
γ-GLU-Abu-GLY ([γGlu]-[Abu]-Gly; also: γ-peptide bond from Glu side chain carboxyl to Abu)	improve the expression of Nrf2 mRNA		increased SOD2 mRNA expression	remarkably excellent
γ-GLU-VAL-LYS ([γGlu]-Val-Lys; also: gamma-glutamyl isopeptide bond (Glu side chain to Val))	improve the expression of Nrf2 mRNA		increased SOD2 mRNA expression	
γ-GLU-ILE-GLY ([γGlu]-Ile-Gly)	improve the expression of Nrf2 mRNA	remarkably excellent effect; also recorded: statistically significant activity	increased SOD2 mRNA expression	remarkably excellent; also recorded: statistically significant activity
γ-GLU-VAL-HIS ([γGlu]-Val-His; also: gamma-glutamyl isopeptide bond (Glu side chain to Val))	improve the expression of Nrf2 mRNA		increased SOD2 mRNA expression	remarkably excellent
β-GLU-HIS	no effect			
γ-GLU-PRO-GLY ([γGlu]-Pro-Gly)	improve the expression of Nrf2 mRNA	remarkably excellent effect; also recorded: statistically significant activity	increased SOD2 mRNA expression	remarkably excellent; also recorded: statistically significant activity
γ-GLU-VAL-VAL ([γGlu]-Val-Val; also: gamma-glutamyl isopeptide bond (Glu side chain to Val))	improve the expression of Nrf2 mRNA		increased SOD2 mRNA expression	
γ-GLU-VAL-PRO ([γGlu]-Val-Pro; also: gamma-glutamyl isopeptide bond (Glu side chain to Val))	improve the expression of Nrf2 mRNA		increased SOD2 mRNA expression	
γ-GLU-GLN-GLN ([γGlu]-Gln-Gln)	improve the expression of Nrf2 mRNA		increased SOD2 mRNA expression	
γ-GLU-SER-GLY ([γGlu]-Ser-Gly; also: gamma-glutamyl isopeptide bond (Glu side chain to Ser))	improve the expression of Nrf2 mRNA	statistically significant activity		remarkably excellent; also recorded: statistically significant activity
γ-GLU-VAL-ARG ([γGlu]-Val-Arg; also: gamma-glutamyl isopeptide bond (Glu side chain to Val))	improve the expression of Nrf2 mRNA	remarkably excellent effect; also recorded: statistically significant activity	increased SOD2 mRNA expression	remarkably excellent; also recorded: statistically significant activity
γ-GLU-VAL-ALA ([γGlu]-Val-Ala; also: gamma-glutamyl isopeptide bond (Glu side chain to Val))	improve the expression of Nrf2 mRNA		increased SOD2 mRNA expression	
γ-GLU-VAL-PHE ([γGlu]-Val-Phe; also: gamma-glutamyl isopeptide bond (Glu side chain to Val))	improve the expression of Nrf2 mRNA	remarkably excellent effect; also recorded: statistically significant activity	increased SOD2 mRNA expression	remarkably excellent; also recorded: statistically significant activity
γ-GLU-GLU-GLU ([γGlu]-Glu-Glu)	improve the expression of Nrf2 mRNA			
γ-GLU-VAL-ASN ([γGlu]-Val-Asn; also: gamma-glutamyl isopeptide bond (Glu side chain to Val))	improve the expression of Nrf2 mRNA	remarkably excellent effect; also recorded: statistically significant activity	increased SOD2 mRNA expression	remarkably excellent; also recorded: statistically significant activity
γ-GLU-CYS(S-Me)-GLY ([γGlu]-Cys(Me)-Gly)	improve the expression of Nrf2 mRNA			
